Source: patent US9414901B2, “Drug-eluting stents for adenosine receptor modulation” (Indiana University Research and Technology Corporation, priority 2009, dated 2016)
≈ marks a conversion by molar mass, not a printed value.

What was measured:
[1] = system: porcine CSM (coronary artery smooth muscle cells); assay: CSM proliferation/viability by MTT assay on collagen matrix/DPCPX-loaded PU film; type: cell-based, Ossabaw pigs; conditions: no DPCPX release, day 4
Description: A drug eluting film coated on the cover glass was placed in each well of a 24-well plate for a cell culture study.
Hearts were harvested from Ossabaw pigs. Coronary arteries dissected from the hearts were placed in a physiological buffer. Porcine CSM were enzymatically dispersed from coronary arteries using collagenase solutions. Primary cultured CSM were subcultured at 37° C. with 5% CO2 in DMEM containing 10% fetal bovine serum (FBS). CSM cultured with 80% confluence were used between passage 4 and 10.
The CSM were seeded on the surface of type I collagen that was gelated on the DPCPX-loaded PU film. The DPCPX-loaded PU films with various drug/polymer ratios and pure PU film as a control were placed in 24-well plates. Collagen solution was prepared by mixing eight parts of PURECOL (3 mg/mL) with one part of 10×PBS. The pH of the collagen solution was adjusted to 7.4 by adding 0.01 N HCl and 0.1 M NaOH. […] Subcultured CSM were suspended by trypsinization, counted and seeded on the collagen matrix/DPCPX-loaded PU film in 24 wells. […]
After 4 days, cell proliferation was estimated using an MTT cell growth assay kit (Chemicon International). […] The absorbance was read at 490 nm, which was directly proportional to the number of living cells. The measured absorbance in each treatment group was compared to the percent of control. […]

porcine CSM = conditions: cited from earlier work
[2] = In vitro DPCPX release from coated stents in PBS (HPLC); type: physicochemical; conditions: stents coated with DPCPX in polymer-1 or polymer-2 (PLGA), 30% and 50% DPCPX/polymer, PBS buffer
Description: The drug elution profiles of the two different sets of PU films were examined instead of expanded state of stents. […] The release rate was slightly accelerated with the increase in the drug/PU ratio on the stent coated at the constant drug density of 1 μg/mm^2 (30%>20%>10% DPCPX/PU ratio).
In the drug release study, 2 mL of PBS buffer was used as a release medium which was replaced with a fresh solution every day. Release profiles may be partially affected by dissolution-limited release in addition to diffusion-limited release. Previous studies used 1.5 mL of medium with addition of 10% ethanol or 1.5 mL of PBS with 0.005% Tween 20 per stent. Addition of ethanol in the release medium removed the solubility limitation, but ethanol affected the release profiles as confirmed in the accelerated release studies; thus, ethanol was not used in this study.
Stainless steel stents were coated with polymer and DPCPX in concentrations that optimized in vitro elution kinetics of DPCPX (FIG. 5). Stents used for in vivo testing were coated with 300 μg DPCPX and 700 μg PLGA ([…]) polymer. A1R selective antagonist-DPCPX was dissolved in THF along with polymer-1 and polymer-2. The solutions were spray coated on stainless steel stents. […] The amounts of released DPCPX were analyzed using HPLC. […]

[3] = system: in-stent coronary stenosis in metabolic syndrome pigs; assay: In-stent stenosis by IVUS 4 weeks after coronary stenting; type: in vivo, Ossabaw miniature swine; conditions: IVUS at 4 weeks
Description: Under angiographic guidance, polymer- and DPCPX-eluting stents were placed in either left circumflex (CFX) or left anterior descending (LAD) artery of anesthetized male Ossabaws by random assignment.
A stainless steel stent deployment was utilized to cause vascular injury, which leads to coronary neointima formation (in-stent stenosis) in lean Ossabaw swine and in Ossabaw swine with metabolic syndrome (also known as pre-diabetes).
Stents were inflated to 1.1× of lumen diameter. The right coronary artery (RC) served as a non-stented control. Pigs were allowed to recover for 4 weeks, then sacrificed, and coronary arteries were harvested for tissue analysis.
In-stent stenosis was quantified as the percent area covered with stenotic lesions in in-stent coronary segments in vivo using intravascular ultrasound (IVUS) right before sacrifice. Percent area in-stent stenosis=Area of Neointima/Area of Original Lumen indicated by stent struts×100.
Bare metal and paclitaxel stents were deployed in coronary arteries of lean and metabolic syndrome (MetS) pigs (n=5/group) with stent:artery ratios at 1.0 (A) and 1.3 (B), *p<0.01. Polymer-coated (Polymer, control) and DPCPX-eluting stents (DPCPX) were deployed concurrently in coronary arteries with stent:artery ratio of 1.1 in lean and MetS pigs (n=5/group, C), *p<0.01. (A-C) IVUS was done 4 weeks after stenting in vivo to evaluate in-stent stenosis. Percent area stenosis of in-stent segments was quantified by IVUS.

[4] = system: ERK, JNK and PI3K-AKT signaling pathways in CSM; conditions: dose-dependent manner; cited from earlier work
physchem = conditions: thermodynamic from solid

OC[C@H]1O[C@@H](n2cnc3c(NC4CCCC4)nc(Cl)nc32)[C@H](O)[C@@H]1O [CCPA, 2-Chloro-N-6-cyclopentyladenosine]
CSM viability (MTT), % of first control ([1]; 0.1 μM CCPA): 121.8%
CSM viability (MTT), % of first control ([1]; 10 μM CCPA): 112.2%
DNA synthesis, protein synthesis, and cell number in porcine CSM (porcine CSM): increase

CCCn1c(=O)c2[nH]c(C3CCCC3)nc2n(CCC)c1=O [DPCPX, 1,3-dipropyl-8-cyclopentyl xanthine]
period over which release of DPCPX was sustained [2]: ≥ 28 days
decrease in in-stent stenosis ([3]; eluting stent (300 μg DPCPX, 700 μg PLGA) at 1.1 times lumen diameter, vs polymer-coated stent): 53%
adenosine-induced ERK, JNK, and AKT phosphorylation [4]: significantly decreases
solubility at 48 h (physchem; PBS with 0.05% Tween 20, 37 °C, pH 7.4, aqueous with cosolvent or surfactant or cyclodextrin): 1.63 ± 0.08 µg/mL (≈ 5.35 µM)
solubility at 48 h (physchem; PBS, 37 °C, pH 7.4, aqueous buffer): 1.69 ± 0.72 µg/mL (≈ 5.55 µM)
solubility at 48 h (physchem; distilled water, pH adjusted, 37 °C, pH 3, aqueous buffer): ~1.6 µg/mL (≈ 5.26 µM)
solubility at 48 h (physchem; distilled water, pH adjusted, 37 °C, pH 11, aqueous buffer): 38.1 ± 2.3 µg/mL (≈ 125 µM)
solubility at 48 h (physchem; water, 37 °C, pH 7.4, water): 1.62 ± 0.12 µg/mL (≈ 5.32 µM)

CC(=O)O[C@H]1C(=O)[C@@]2(C)[C@H]([C@H](OC(=O)c3ccccc3)[C@]3(O)C[C@H](OC(=O)[C@H](O)[C@@H](NC(=O)c4ccccc4)c4ccccc4)C(C)=C1C3(C)C)[C@]1(OC(C)=O)CO[C@@H]1C[C@@H]2O [Paclitaxel]
decrease in in-stent stenosis ([3]; metabolic syndrome pigs, eluting stent deployed at 1.0 times lumen diameter, vs bare metal stent): 47%
decrease in in-stent stenosis ([3]; metabolic syndrome pigs, eluting stent deployed at 1.3 times lumen diameter, vs bare metal stent): 55%

Nc1ncnc2c1ncn2[C@@H]1O[C@H](CO)[C@@H](O)[C@H]1O [adenosine]
DNA synthesis, protein synthesis, and cell number in porcine CSM (porcine CSM): increase
